From article PMC9090415, “Discovery of small molecule inhibitors of Plasmodium falciparum apicoplast DNA polymerase” (Journal of Enzyme Inhibition and Medicinal Chemistry, 2022)

Target: T1, bacteriophage T4 DNA polymerase (Enterobacteria phage T4, UniProt P04415)
T1 construct: made in house
T1 sequence (P04415 1-898): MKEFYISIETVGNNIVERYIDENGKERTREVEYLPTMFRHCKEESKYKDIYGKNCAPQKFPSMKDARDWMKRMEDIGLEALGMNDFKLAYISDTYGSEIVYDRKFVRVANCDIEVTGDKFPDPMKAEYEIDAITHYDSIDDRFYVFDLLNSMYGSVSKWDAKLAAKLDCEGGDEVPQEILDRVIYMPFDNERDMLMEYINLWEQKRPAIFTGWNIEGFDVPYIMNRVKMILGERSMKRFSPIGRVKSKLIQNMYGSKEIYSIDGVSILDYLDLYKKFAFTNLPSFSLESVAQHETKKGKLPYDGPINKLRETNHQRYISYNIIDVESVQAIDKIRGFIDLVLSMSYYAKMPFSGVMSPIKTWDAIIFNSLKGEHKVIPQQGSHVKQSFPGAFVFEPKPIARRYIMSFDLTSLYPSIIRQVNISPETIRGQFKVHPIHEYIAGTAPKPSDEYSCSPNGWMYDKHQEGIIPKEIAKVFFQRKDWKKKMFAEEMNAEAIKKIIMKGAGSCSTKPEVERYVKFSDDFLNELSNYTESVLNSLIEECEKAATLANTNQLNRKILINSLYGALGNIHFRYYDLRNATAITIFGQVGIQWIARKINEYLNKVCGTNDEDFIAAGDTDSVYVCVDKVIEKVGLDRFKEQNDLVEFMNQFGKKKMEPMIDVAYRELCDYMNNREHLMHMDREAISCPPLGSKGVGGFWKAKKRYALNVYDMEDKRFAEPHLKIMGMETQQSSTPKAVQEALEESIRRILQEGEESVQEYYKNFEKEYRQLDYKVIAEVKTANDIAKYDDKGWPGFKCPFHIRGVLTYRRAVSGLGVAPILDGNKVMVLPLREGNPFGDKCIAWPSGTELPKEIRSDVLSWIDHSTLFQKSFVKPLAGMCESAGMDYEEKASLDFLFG
Assay: Counter-screen against bacteriophage T4 DNA polymerase
Format: biochemical
Conditions: DRC-2
Procedure: Codon-optimized, exonuclease-deficient Pf-apPOL was overexpressed in E. coli BL21 (DE3) and purified as described. The protein was dialysed against two, 1-liter changes of 20 mM Tris-HCl (pH 8.0), 400 mM NaCl, and 20% glycerol. Plasmodium bergei and Babesia bovis apPOLs (Pb-apPOL and Bb-apPOL, respectively) were codon-optimized, expressed, and purified as for Pf-apPOL[15]. Bacteriophage T4 DNA polymerase was purified as described. The DNA oligonucleotides used to make the high-throughput substrate were obtained from Integrated DNA Technologies. Deoxynucleotides were purchased from Strategene. All other materials came from Fisher Scientific.
Each compound was tested in a dose-response format to determine IC50 values. […] T4 DNA polymerase can be produced in large quantities, and is in the same family (B-family) as the replicative human DNA polymerases (α, δ, and ε)[20].

## COc1cccc(Oc2c(C(F)(F)F)oc3cc(OC(=O)N(C)C)ccc3c2=O)c1 [Molecule 52, COc1cccc(c1)Oc1c(=O)c2ccc(cc2oc1C(F)(F)F)OC(=O)N(C)C]
Concentration 20
  % inhibition T4 10': 10%
  % inhibition T4 40': 10%
  % inhibition T4 180': 3%
Concentration 40
  % inhibition T4 10': 17%
Concentration 10
  % inhibition T4 40': 7%
  % inhibition T4 90': 7%
Concentration 5
  % inhibition T4 90': 3%
Concentration 80
  % inhibition T4 180': 17%

## N#CC(=NNc1cc(C(F)(F)F)cc(C(F)(F)F)c1)C(=O)c1ccco1 [KU0264276]
Concentration 2.5
  % inhibition T4 10': 9%
  % inhibition T4 40': 7%
Concentration 5
  % inhibition T4 10': 9%
  % inhibition T4 40': 9%
  % inhibition T4 90': 7%
Concentration 20
  % inhibition T4 10': 13%
  % inhibition T4 40': 13%
Concentration 40
  % inhibition T4 10': 19%
  % inhibition T4 40': 19%
  % inhibition T4 180': 13%
Concentration 10
  % inhibition T4 40': 13%
Concentration 80
  % inhibition T4 40': 19%
  % inhibition T4 180': 19%

## O=C(Cc1cc(=O)[nH]c(SCc2ccccc2)n1)Nc1ccc2c(c1)OCO2 [Molecule 46, O=C(Cc1cc(=O)[nH]c(n1)SCc1ccccc1)Nc1ccc2c(c1)OCO2]
Concentration 2.5
  % inhibition T4 10': -13%
  % inhibition T4 40': -13%
Concentration 40
  % inhibition T4 10': 9%
  % inhibition T4 40': 9%
  % inhibition T4 90': 9%
  % inhibition T4 180': 4%
Concentration 80
  % inhibition T4 10': 6%
  % inhibition T4 40': 6%
Concentration 10
  % inhibition T4 90': 4%

## CC(C)(C)OC(=O)COc1ccc2cc(-c3ccccc3)c(=O)oc2c1 [Molecule 81, O=C(OC(C)(C)C)COc1ccc2c(c1)oc(=O)c(c2)c1ccccc1]
Concentration 10
  % inhibition T4 10': 13%
  % inhibition T4 40': 10%
  % inhibition T4 90': 10%
  % inhibition T4 180': 7%
Concentration 40
  % inhibition T4 10': 7%
Concentration 2.5
  % inhibition T4 40': 16%
  % inhibition T4 90': 16%
  % inhibition T4 180': 13%
Concentration 5
  % inhibition T4 40': 13%
  % inhibition T4 90': 13%
Concentration 20
  % inhibition T4 40': 6%
  % inhibition T4 90': 6%
Concentration 80
  % inhibition T4 40': 6%
